Results on 1 substance are retold here after patent publication US8071548B2, “Method of reducing injury to mammalian cells” (Nono, Inc., priority 2002, dated 2011).

The test system of one assay is NMDARs. Description: NMDA-evoked 45Ca2+ accumulation in cortical cultures. As to conditions: 50 nM pre-treatment. It is filed as cell-based, mouse. The procedure:
Excitotoxicity and Ca^2+ accumulation measurements were performed identically to the methods described and validated in refs. 4 and 14. I used measurements of propidium iodide fluorescence as an index of cell death, and of radiolabelled ^45Ca^2+ accumulation for Ca^2+ load determinations in sister cultures on the same day. Experimental solutions were as previously described (4). Ca^2+ influx was pharmacologically channeled through distinct pathways as follows: To NMDARs by applying NMDA (×60 min) in the presence of both CNQX (Research Biochemicals Inc.) and nimodipine (Miles Pharmaceuticals), to non-NMDARs by applying kainic acid (×60 min or 24 h) in the presence of both MK-801 (RBI) and nimodipine, and to VSCCs using 50 mM K^+ solution (×60 min) containing 10 mM Ca^2+ and S(−)-Bay K 8644, an L-type channel agonist (300-500 nM; RBI), MK-801 and CNQX. Antagonist concentrations were (in μM): MK-801 10, CNQX 10, nimodipine 2. All three antagonists were added after the 60 min agonist applications for the remainder of all experiments (24 h). A validation of this approach in isolating Ca^2+ influx to the desired pathway in these cortical cultures has been published (4).

In the next assay the test system is nNOS. Description: NMDA-evoked cGMP formation (surrogate of NO production by nNOS). As to conditions: 50 nM, pre-treated 1 h, NMDA 0-1000 μM. The class given is cell-based, mouse. On the procedure: cGMP determinations were performed 10 min after challenging the cultures with NMDA, kainate, or high-K (FIGS. 4c-e) with the Biotrak cGMP enzyme immunoassay system according to the kit manufacturer's instructions (Amersham). Staining for NADPH diaphorase (FIG. 4b) was done as described in ref 12.

A further assay relates to CA1 neurons. Description: Electrophysiological recordings in acute hippocampal slices (CA1 neurons). Also on record: species or system rat. As to conditions: 50 nM bath-applied. The procedure:
Electrophysiological Recordings were made in […] hippocampal slices from 20-36 day old Sprague-Dawley rats perfused at room temperature with ACSF containing (in mM) 126 NaCl, 3 KCl, 2 MgCl2, 2 CaCl2, 1.2 KH2PO4, 26 NaHCO3 and 10 glucose and bubbled with 95% O2/5% CO2. Whole-cell recordings of CA1 neurons were performed using the “blind” method with an Axopatch-1D amplifier (Axon Instruments, Foster City, Calif.) at holding potential −60 mV. Pipettes (4-5 MΩ) were filled with solution containing (mM): 135 CsCl, 2 MgCl2, 0.1 CaCl2, 0.5 EGTA, 10 HEPES, 4 Mg-ATP, 0.2 GTP, and 5 QX-314, pH 7.4, 310 mOsm. Field potentials were recorded with glass micropipettes (2-4 MΩ) filled with ACSF placed in the stratum radiatum […] from the cell body layer. Synaptic responses were evoked by stimulation (0.05 ms) of the Schaffer collateral-commissural pathway with a bipolar tungsten electrode in the presence of bicuculline methiodide (10 μM). For INMDA recording, Mg^2+ was removed from and 20 μM CNQX was added in ACSF. Following 10-20 min base line recordings of EPSCs, INMDA and fEPSPs, Tat-peptides were applied in ACSF and recordings were continued for 30 min thereafter.

Assay [1] concerns transient middle cerebral artery occlusion. As to the kind of experiment: Transient MCAO, post-treatment study (1 h after MCAO onset). It is filed as in vivo, Sprague-Dawley rats. As to conditions: 3 nMole/g i.v. 1 h after MCAO onset. The procedure: Next, I examined whether pretreatment with Tat-peptides would reduce stroke damage. Experiments were carried out in adult male Sprague-Dawley rats subjected to transient middle cerebral artery occlusion (MCAO) for 90 minutes by the intraluminal suture method (36,37). Animals were fasted overnight and injected with atropine sulfate (0.5 mg/kg IP). After 10 minutes anesthesia was induced with 3.5% halothane in a mixture of nitrous oxide and oxygen (Vol. 2:1) and maintained with 0.8% halothane. Rats were orally intubated, mechanically ventilated, and paralyzed with pancuronium bromide (0.6 mg/kg IV). Body temperature was maintained at 36.5-37.5° C. with a heating lamp. Polyethylene catheters in the femoral artery and vein were used to continuously record blood pressure and to sample blood for gas and pH measurements. […] This produces an extensive infarction encompassing the cerebral cortex and basal ganglia. […] Physiological parameters (body temperature, blood pressure, blood gases) were monitored and maintained throughout the experiment (Table 1). All experimental manipulations and analyses of data were performed by individuals blinded to the treatment groups. The extent of cerebral infarction was measured 24 h after MCAO onset (FIG. 7C inset). The postural reflex test (38), and the forelimb placing test (39) were used to grade neurological function on a scale of 0 to 12 (normal=0; worst=12) during MCAO (at 50 minutes) and 24 h thereafter.
Next, I examined whether treatment with Tat-NR2B9c could attenuate ischemic neuronal damage in-vivo when given after stroke onset. […] Infarction volume and neurological outcome measurements were performed at times identical to the pre-treatment study. Body temperature, blood pressure and blood gases were monitored throughout the 24 h experiment and maintained equivalent between groups (Table 2).

On to Tat-KLSSIESDV [Tat-NR2B9c], for which the “uptake of 45Ca2+ produced by applying NMDA” value with NMDARs is reported as “did not alter”. For the same substance, the “suppression of NMDA-evoked increase in cGMP (average)” value in the assay with nNOS came out at 39.5±6.7%. Moreover, the “synaptic responses, total EPSC and AMPA or NMDA components of the EPSC in CA1 neurons” value in the assay on CA1 neurons is reported as “had no effect”. In addition, the “24 h neurological scores” value in assay [1] is recorded as “significant improvement”. Besides, in assay [1] (24 h), the “reduction in cortical infarction volume” value is reported as 86.97±4.38%. In addition, the “reduction of volume of total cerebral infarction” value in assay [1] (24 h, vs controls) turned out to be 67.0±3.75%.
